The target in one assay is T1, UCHL5 (Homo sapiens, UniProt Q9Y5K5).
T1 sequence (Q9Y5K5 1-329): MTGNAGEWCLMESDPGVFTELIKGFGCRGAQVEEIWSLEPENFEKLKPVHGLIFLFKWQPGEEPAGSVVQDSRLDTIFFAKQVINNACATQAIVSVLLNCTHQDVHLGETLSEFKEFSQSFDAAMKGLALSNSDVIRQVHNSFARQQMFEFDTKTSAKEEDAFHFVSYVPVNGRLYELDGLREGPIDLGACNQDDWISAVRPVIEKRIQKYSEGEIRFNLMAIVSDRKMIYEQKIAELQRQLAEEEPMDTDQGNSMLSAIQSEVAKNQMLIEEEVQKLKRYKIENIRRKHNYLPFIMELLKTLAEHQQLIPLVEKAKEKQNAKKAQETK
Put plainly: Ub-VS labeling of lysates of exposed OPM-2 cells, UCHL5. It is filed as cell-based. Further details: endogenous in cells; host or cells: OPM-2 multiple myeloma cells. The conditions noted are these: 0.5 μM, 3 hours. On the procedure:
(§1) Cell extract proteins were resolved by Tris-Acetate PAGE gels (Invitrogen, Carlsbad, CA) and transferred onto a polyvinylidene difluoride (PVDF) membrane for western blotting. For Ub-VS labeling, we lysed cell pellets from control or treated cells with buffer (50 mM HEPES pH 7.4, 250 mM sucrose, 10 mM MgCl2, 2 mM ATP, 1 mM DTT and 1%NP-40) on ice for 30 min and removed debris by centrifugation. We labeled 25 μg of protein with 1 μM Ub-VS for 30 min at 37 °C. We resolved samples by SDS-PAGE and performed immunoblotting. For HA-Ub-VS labeling, we pretreated purified 19S (5 nM) with DMSO or 2.5, 5, 10, 15 or 25μM 1570 for 10 min at room temperature, which followed with labeling with 1 μM HA-Ub-VS for 30 min at 37 °C and immunoblotting.

The next assay deals with USP14 (Homo sapiens, UniProt P54578). The assay is described as follows: Ub-VS labeling of lysates of exposed OPM-2 cells, USP14. Format: cell-based. Further details: endogenous in cells; host or cells: OPM-2 multiple myeloma cells. The settings on record: 0.5 μM, 3 hours. The protocol:
as §1

Chain of USP14 (P54578 whole entry): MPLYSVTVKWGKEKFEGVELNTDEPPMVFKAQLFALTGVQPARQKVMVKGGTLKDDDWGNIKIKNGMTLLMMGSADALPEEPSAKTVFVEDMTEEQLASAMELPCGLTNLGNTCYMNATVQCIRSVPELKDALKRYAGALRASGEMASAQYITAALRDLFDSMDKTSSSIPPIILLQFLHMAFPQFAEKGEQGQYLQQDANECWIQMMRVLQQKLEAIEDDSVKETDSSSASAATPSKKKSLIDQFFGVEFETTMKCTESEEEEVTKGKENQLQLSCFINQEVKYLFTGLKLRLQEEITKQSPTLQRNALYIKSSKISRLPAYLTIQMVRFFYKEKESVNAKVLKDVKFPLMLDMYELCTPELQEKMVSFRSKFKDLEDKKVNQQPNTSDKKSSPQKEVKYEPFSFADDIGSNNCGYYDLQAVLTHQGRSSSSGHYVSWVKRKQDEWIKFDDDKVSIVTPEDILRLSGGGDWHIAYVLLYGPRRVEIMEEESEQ

Take `C=CC(=O)N1CC/C(=C\c2ccc(F)c([N+](=O)[O-])c2)C(=O)/C(=C/c2ccc(F)c([N+](=O)[O-])c2)C1` [VLX1570]: on UCHL5, the “UCHL5 inhibition in exposed cells” value is “weak in comparison”. Besides, the “inhibition of USP14 activity in exposed cells” value against USP14 is “Inhibition of USP14 activity could be demonstrated”.

Values taken from publication PMC4893612 (Scientific Reports, 2016).
